Our source for the IC50 values is patent US20120115827A1, “3-AMINOBENZAMIDE COMPOUNDS AND VANILLOID RECEPTOR SUBTYPE 1 (VR1) INHIBITORS” (Japan Tobacco Inc., priority 2004, published 2012).

Structures can show the parent of a compound that is named as a salt.

T1 sequence (Q8NER1 whole entry): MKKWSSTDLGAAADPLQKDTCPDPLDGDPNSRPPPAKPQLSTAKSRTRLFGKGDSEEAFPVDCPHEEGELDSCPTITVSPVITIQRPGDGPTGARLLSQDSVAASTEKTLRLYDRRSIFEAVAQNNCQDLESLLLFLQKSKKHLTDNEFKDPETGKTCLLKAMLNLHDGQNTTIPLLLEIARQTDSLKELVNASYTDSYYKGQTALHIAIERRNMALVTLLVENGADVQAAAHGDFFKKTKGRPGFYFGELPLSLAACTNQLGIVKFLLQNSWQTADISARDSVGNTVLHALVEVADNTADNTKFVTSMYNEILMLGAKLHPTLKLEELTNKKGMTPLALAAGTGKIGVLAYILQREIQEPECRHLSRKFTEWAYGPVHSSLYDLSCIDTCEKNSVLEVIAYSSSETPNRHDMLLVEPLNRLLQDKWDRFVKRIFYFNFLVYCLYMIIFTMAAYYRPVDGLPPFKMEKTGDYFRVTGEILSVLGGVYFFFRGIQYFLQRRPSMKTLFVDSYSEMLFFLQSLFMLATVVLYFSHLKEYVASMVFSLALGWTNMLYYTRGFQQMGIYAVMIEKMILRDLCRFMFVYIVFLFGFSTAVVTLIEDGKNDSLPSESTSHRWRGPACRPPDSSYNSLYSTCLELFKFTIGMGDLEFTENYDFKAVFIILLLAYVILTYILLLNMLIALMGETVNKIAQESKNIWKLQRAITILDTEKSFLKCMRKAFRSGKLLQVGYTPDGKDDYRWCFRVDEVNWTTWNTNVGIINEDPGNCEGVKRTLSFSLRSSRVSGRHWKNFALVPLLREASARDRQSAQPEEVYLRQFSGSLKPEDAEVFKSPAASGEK

This experiment concerns the target T1, human VR1 (Homo sapiens, UniProt Q8NER1).
T1 construct: expressed in transfected cells
Briefly: Inhibition of Ca2+ entry in cells caused by proton (VR1 agonist). In kind it is cell-based. Particulars: Rat glioma (C6BU1) cells stably expressing human VR1; proton stimulation to pH 5.5; Fura 2-AM fluorescence; read-out: In vitro IC50. Here is the method:
The assay for evaluation of VR1 inhibition by the inventive compounds will be described below. The assay was intended to evaluate in vitro inhibition of Ca^2+ entry in cells caused by proton, one of the VR1 agonists.
Rat glioma (C6BU1) cells stably expressing human VR1 were suspended in 20 mM MES buffer (at pH 6.8, contg. 20 mM 2-morpholinoethanesulfonate (referred to as MES hereinafter), 115 mM NaCl, 5 mM KCl, 1 mM MgCl2 and 14 mM D-glucose) to make a cell density of 1×10^6 cells/mL. A fluorescent dye, Fura 2-AM solution (Dojindo Corporate, Cat. No. 343-05401) was added to the suspension to make a 5 μM concentration thereof. Further, Pluronic F-127 (Wako Pure Chemical Industries, Ltd., Cat. No. P6866) was added to make a 0.1% content thereof. Then, the suspension was incubated at 37° C. for 30 min. The cells were harvested and washed three times with 20 mM MES buffer. The cells were suspended again to make a cell density of 5×10^5 cells/mL. A 500-μL portion of the suspension was taken with a cuvette (MC MEDICAL, INC., Cat. No. SSR3121), to which […] MES buffer containing 250 mM CaCl2 was added to incorporate Ca^2+ into the cells. At the same time, 5 μL of a test compound solution (in a range of 100 μM to 10 nM in DMSO) was also added to provide a final concentration thereof in a range of 1 μM to 0.1 nM. Alternatively, 5 μl of DMSO was added as control to provide a final concentration of 1% DMSO. The suspension was set in an intracellular ionometer (CAF-110; JASCO) 10 min after those additions. The cells were stimulated with protons by addition of 60 μL of 20 mM MES buffer at pH 1.1 to the suspension to set its pH at 5.5. The activity of the test compound was determined as a difference between the minimum of fluorescence intensity before agonist stimulation and its maximum after the stimulation. The value of IC50 was derived from percentage of inhibition by the test compound compared with the control.
Usually IC50 stands for the midpoint of a concentration-inhibition curve. In the case of `CC(C)COc1ccc(NC(=O)c2ccc(Cl)c(N(CCO)c3ncccc3Cl)c2)cc1` [Example 35, 4-chloro-3-[N-(3-chloropyridin-2-yl)-N-(2-hydroxyethyl)amino]-N-(4-isobutyloxyphenyl)benzamide, hydrochloride salt], the IC50 was at most 100 nM. Next, `O=C(Nc1ccc(Cl)cc1)c1ccc(Cl)c(N(CCO)c2ncccc2Cl)c1` [Example 36, 4-chloro-N-(4-chlorophenyl)-3-[N-(3-chloropyridin-2-yl)-N-(2-hydroxyethyl)amino]-benzamide]: at most 100 nM; `CC(C)c1ccc(NC(=O)c2ccc(Cl)c(N(CCO)c3ncccc3Cl)c2)cc1` [Example 37, 4-chloro-3-[N-(3-chloropyridin-2-yl)-N-(2-hydroxyethyl)amino]-N-(4-isopropylphenyl)-benzamide]: at most 100 nM.

Consider `O=C(Nc1ccc(Cl)c(C(F)(F)F)c1)c1ccc(Cl)c(N(CCO)c2ncccc2Cl)c1` [Example 39, 4-chloro-3-[N-(3-chloropyridin-2-yl)-N-(2-hydroxyethyl)amino]-N-(4-chloro-3-trifluoromethylphenyl)benzamide], for which the IC50 was at most 100 nM.

`O=C(Nc1ccc(C(F)(F)F)nc1)c1ccc(Cl)c(N(CCO)c2ncccc2Cl)c1` [Example 40, 4-chloro-3-[N-(3-chloropyridin-2-yl)-N-(2-hydroxyethyl)amino]-N-(2-trifluoromethylpyridine-5-yl)benzamide]: the IC50 was at most 100 nM.

As for `CC(C)Oc1ccc(NC(=O)c2ccc(Cl)c(N(CCO)c3ncccc3Cl)c2)cc1` [Example 41, 4-chloro-3-[N-(3-chloropyridin-2-yl)-N-(2-hydroxyethyl)amino]-N-(4-isopropyloxyphenyl)-benzamide], the IC50 was at most 100 nM. To `O=C(Nc1ccc(N2CCCCC2)c(F)c1)c1ccc(Cl)c(N(CCO)c2ncccc2Cl)c1` [Example 43, 4-chloro-3-[N-(3-chloropyridin-2-yl)-N-(2-hydroxyethyl)amino]-N-(3-fluoro-4-piperidinylphenyl)-benzamide] belongs at most 100 nM; to `CC(C)(C)c1ccc(NC(=O)c2ccc(Cl)c(N(CCCO)c3ncccc3Cl)c2)cc1` [Example 45, 4-chloro-3-[N-(3-chloropyridin-2-yl)-N-(3-hydroxypropyl)amino]-N-(4-tert-butylphenyl)-benzamide], at most 100 nM. Next, `CC(C)(C)c1ccc(NC(=O)c2ccc(Cl)c(N(CC(=O)O)c3ncccc3Cl)c2)cc1` [Example 46, N-(3-chloropyridin-2-yl)-N-{2-chloro-5-[N-(4-tert-butylphenyl)carbamoyl]phenyl}-aminoacetic acid]: at most 100 nM; `CC(C)(C)c1ccc(NC(=O)c2ccc(Cl)c(N(CC(N)=O)c3ncccc3Cl)c2)cc1` [Example 47, 4-chloro-3-[N-(3-chloropyridin-2-yl)-N-(carbamoylmethyl)amino]-N-(4-tert-butylphenyl)-benzamide]: at most 100 nM; `CNC(=O)CN(c1cc(C(=O)Nc2ccc(C(C)(C)C)cc2)ccc1Cl)c1ncccc1Cl` [Example 48, 4-chloro-3-[N-(3-chloropyridin-2-yl)-N-(N-methylcarbamoylmethyl)amino]-N-(4-tert-butylphenyl)-benzamide]: at most 100 nM. For the molecule `CN(C)C(=O)CN(c1cc(C(=O)Nc2ccc(C(C)(C)C)cc2)ccc1Cl)c1ncccc1Cl` [Example 49, 4-chloro-3-[N-(3-chloropyridin-2-yl)-N—(N,N-dimethylcarbamoylmethyl)amino]-N-(4-tert-butylphenyl)-benzamide], the IC50 is 100 to 1000 nM.

Take `COc1ccc(C(=O)Nc2ccc(OCC(C)C)cc2)cc1N(CCO)c1ncccc1Cl` [Example 50, 3-[N-(3-chloropyridin-2-yl)-N-(2-hydroxyethyl)amino]-N-(4-isobutyloxyphenyl)-4-methoxy-benzamide]: the IC50 was at most 100 nM. Next, `COc1ccc(C(=O)Nc2ccc(OCC(C)C)cc2)cc1N(CCO)c1ccc(C)cn1` [Example 51, N-(4-isobutyloxyphenyl)-4-methoxy-3-[N-(5-methylpyridin-2-yl)-N-(2-hydroxyethyl)amino]-benzamide]: at most 100 nM; `CC(C)COc1ccc(NC(=O)c2cccc(N(CCO)c3ncccc3Cl)c2)cc1` [Example 52, 3-[N-(3-chloropyridin-2-yl)-N-(2-hydroxyethyl)amino]-N-(4-isobutyloxyphenyl)-benzamide]: at most 100 nM; `CC(C)(C)c1ccc(NC(=O)c2cccc(N(CCO)c3ncccc3Cl)c2)cc1` [Example 53, N-(4-tert-butylphenyl)-3-[N-(3-chloropyridin-2-yl)-N-(2-hydroxyethyl)amino]-benzamide]: at most 100 nM. Next, `O=C(Nc1ccc(C(F)(F)F)cc1)c1cccc(N(CCO)c2ncccc2Cl)c1` [Example 54, 3-[N-(3-chloropyridin-2-yl)-N-(2-hydroxyethyl)amino]-N-(4-trifluoromethylphenyl)-benzamide]: at most 100 nM; `CNC(=O)c1cc(NC(=O)c2ccc(Cl)c(N(CCO)c3ncccc3Cl)c2)ccc1OCC(C)C` [Example 55, 4-chloro-3-[N-(3-chloropyridin-2-yl)-N-(2-hydroxyethyl)amino]-N-(4-isobutyloxy-3-methylcarbamoylphenyl)-benzamide]: at most 100 nM. To `CC(C)COc1ccc(NC(=O)c2ccc(Cl)c(N(CCO)c3ncccc3Cl)c2)cc1C(=O)N(C)C` [Example 56, 4-chloro-3-[N-(3-chloropyridin-2-yl)-N-(2-hydroxyethyl)amino]-N-(3-dimethylcarbamoyl-4-isobutyloxyphenyl)-benzamide] belongs at most 100 nM; to `CC(C)(C)c1ccc(NC(=O)c2ccc(Cl)c(N(CC(=O)NCCO)c3ncccc3Cl)c2)cc1` [Example 57, N-(4-tert-butylphenyl)-4-chloro-3-{N-(3-chloropyridin-2-yl)-N—[N-(2-hydroxyethyl)carbamoylmethyl]amino}-benzamide], at most 100 nM; to `NC(=O)CN(c1cc(C(=O)Nc2ccc(C(F)(F)F)cc2)ccc1Cl)c1ncccc1Cl` [Example 59, 4-chloro-3-[N-(3-chloropyridin-2-yl)-N-(carbamoylmethyl)amino]-N-(4-trifluoromethylphenyl)-benzamide], at most 100 nM. As for `NC(=O)CN(c1cc(C(=O)Nc2ccc(OC(F)(F)F)cc2)ccc1Cl)c1ncccc1Cl` [Example 60, 4-chloro-3-[N-(3-chloropyridin-2-yl)-N-(carbamoylmethyl)amino]-N-(4-trifluoromethoxyphenyl)-benzamide], the IC50 is at most 100 nM. Next, `CC(C)COc1ccc(NC(=O)c2ccc(Cl)c(N(CC(N)=O)c3ncccc3Cl)c2)cc1` [Example 61, 4-chloro-3-[N-(3-chloropyridin-2-yl)-N-(carbamoylmethyl)amino]-N-(4-isobutyloxyphenyl)-benzamide]: at most 100 nM; `NC(=O)CN(c1cc(C(=O)Nc2ccc(N3CCCCC3)c(F)c2)ccc1Cl)c1ncccc1Cl` [Example 62, 4-chloro-3-[N-(3-chloropyridin-2-yl)-N-(carbamoylmethyl)amino]-N-(3-fluoro-4-piperidinophenyl)-benzamide]: at most 100 nM. Next, `Cc1ccc(C(=O)Nc2ccc(C(F)(F)F)cc2)cc1N(CC(N)=O)c1ncccc1Cl` [Example 63, 3-[N-(3-chloropyridin-2-yl)-N-(carbamoylmethyl)amino]-4-methyl-N-(4-trifluoromethylphenyl)-benzamide]: at most 100 nM. `Cc1ccc(C(=O)Nc2ccc(OC(F)(F)F)cc2)cc1N(CC(N)=O)c1ncccc1Cl` [Example 64, 3-[N-(3-chloropyridin-2-yl)-N-(carbamoylmethyl)amino]-4-methyl-N-(4-trifluoromethoxyphenyl)-benzamide]: the IC50 was at most 100 nM. To `Cc1ccc(C(=O)Nc2ccc(OCC(C)C)cc2)cc1N(CC(N)=O)c1ncccc1Cl` [Example 65] belongs at most 100 nM. Next, `CNC(=O)CN(c1cc(C(=O)Nc2ccc(C(F)(F)F)cc2)ccc1Cl)c1ncccc1Cl` [Example 66, 4-chloro-3-[N-(3-chloropyridin-2-yl)-N-(N-methylcarbamoylmethyl)amino]-N-(4-trifluoromethylphenyl)-benzamide]: at most 100 nM; `NC(=O)CN(c1cc(C(=O)Nc2ccc(OC(F)(F)F)cc2)ccc1Cl)c1ncc(C(F)(F)F)cc1Cl` [Example 67, 4-chloro-3-[N-(3-chloro-5-trifluoromethylpyridin-2-yl)-N-(carbamoylmethyl)amino]-N-(4-trifluoromethoxyphenyl)-benzamide]: at most 100 nM.
